# Measurements reported in article PMC11149917, “Translational and Therapeutic Evaluation of RAS-GTP Inhibition by RMC-6236 in RAS-Driven Cancers” (Cancer Discovery, 2024).
# “And” between values parts separate entries of the source, which are not always exact repeats. Identical values can stand only once.
# Legend:
# [1] = test system: NCI-H441 and Capan-2 xenograft tumors; experiment: PK/Efficacy modeling (Simeoni tumor growth model); set-up: species or system mouse
# Text: Akaike information criterion values were used to discriminate between model structure and fit. Individual data points (n = 3/time point) were averaged from sparsely sampled PK/PD data to create mean profiles, which were used for subsequent modeling. A graphical representation of the model and all parameter estimates and equations can be found in the Supplementary Information (Supplementary Fig. S6; Supplementary Table S8l Supplementary Method).
# For PK modeling, whole blood PK data from single or repeat dose administration of 25 or 40 mg/kg RMC-6236 to NCI-H441 xenograft tumor-bearing mice were used (Supplementary Table S9). RMC-6236 blood PK was best described using a one-compartment model with first-order absorption and elimination. Because intravenous data were not included in the modeling, the model was parameterized in terms of apparent clearance (CL/F) and volume of distribution (V/F), where F is the oral bioavailability.
# (§1) Tumor growth was modeled using the approach previously described by Simeoni and colleagues ([45]). As detailed previously, tumor volume data were collected from mice bearing either NCI-H441 or Capan-2 xenograft tumors in 28-day efficacy studies (Supplementary Table S9). Estimated intrinsic tumor growth parameters include initial tumor volume, W0, which was set to the observed initial tumor volume, and the exponential and linear growth rates constants, λ0 and λ1, which were estimated from vehicle-treated animal tumor growth. Drug-specific parameters include a measure of drug potency, k2, and a transfer rate constant, k1, which describes cell death kinetics. A tumor stasis concentration threshold (CT) was calculated as λ0/k2 and converted to a human equivalent by adjusting for species differences in blood-plasma partitioning and plasma protein binding as discussed in Supplementary Methods. Human PK parameters were predicted via multispecies allometric scaling or assigned as the preclinical average and used to simulate mean steady-state human exposure at various dose levels.
# Intrinsic tumor growth parameters include initial tumor volume, W0, which was set to the observed initial tumor volume, and the exponential and linear growth rates constants, λ0 and λ1, which were estimated from vehicle-treated animal tumor growth and fixed. Drug-specific parameters include a measure of drug potency, k2, and a transfer rate constant, k1, which describes cell death kinetics. Estimates of k2 were dose-dependent and were inversely related to dose, leading to underestimation of drug potency at dose levels that saturate cell killing. […] A tumor stasis concentration threshold (CT) was calculated as λ0/k2.
# [2] = In vitro whole blood-plasma partitioning fitting; assay type: in vitro ADME, human; settings: for Blood-plasma ratio: Human
# Procedure: Tumor PK and PD were added to the model by incorporating blood-plasma partitioning, plasma protein binding, and tumor partitioning and PD parameters.
# B:P=B:P0-(Imax*CBIC50+CB)
# Where B:P is the blood:plasma partitioning ratio at a specific blood concentration, B:P0 is the fitted blood:plasma partitioning ratio at zero concentration, Imax is the maximal decrease in blood:plasma partitioning, and IC50 is the half-maximal concentration in blood to achieve the lowest blood:plasma partitioning ratio.
# wild-type HRAS = wild-type HRAS (Homo sapiens, UniProt P01112+P62937); experiment: RAS-RAF TR-FRET; assay type: biochemical; settings: 25 µmol/L CypA, read-out: EC50, disruption of RAF-RBD binding
# [3] = test system: DUSP6 mRNA in human tumors; experiment: PK/PD model scaled to humans
# Text: as §1
# The mouse PK/PD model was scaled to humans by incorporating human-specific plasma protein binding, blood–plasma partitioning, and estimated human blood PK parameters. The tumor partitioning rate constants were held constant from the mouse model under the assumption that RMC-6236 will partition similarly from free plasma into human-derived xenografts or clinical tumor tissue. Similarly, parameters governing DUSP6 expression were kept the same and assumed to reflect a similarly sensitive tumor in humans. Human simulations were conducted for multiple clinical dose levels using mean PK parameters and assuming an average body weight of 70 kg.
# [4] = Mouse TGI Model Parameters (Capan-2), Reported for 10 mg/kg level
# [5] = Mouse TGI Model Parameters (Capan-2), Reported for 25 mg/kg level
# [6] = Mouse TGI Model Parameters (NCI-H441), Reported for 5 mg/kg level
# [7] = Mouse TGI Model Parameters (NCI-H441), Reported for 10 mg/kg level
# [8] = Mouse TGI Model Parameters (NCI-H441), Reported for 25 mg/kg level
# [9] = simulated mean human PK profiles
# Chain of wild-type HRAS (P01112 1-169): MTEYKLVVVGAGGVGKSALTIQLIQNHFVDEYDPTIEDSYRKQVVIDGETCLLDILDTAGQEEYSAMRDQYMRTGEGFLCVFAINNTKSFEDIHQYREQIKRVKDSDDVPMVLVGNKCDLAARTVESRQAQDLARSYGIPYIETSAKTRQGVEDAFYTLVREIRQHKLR
# Chain of wild-type HRAS (P62937 whole entry): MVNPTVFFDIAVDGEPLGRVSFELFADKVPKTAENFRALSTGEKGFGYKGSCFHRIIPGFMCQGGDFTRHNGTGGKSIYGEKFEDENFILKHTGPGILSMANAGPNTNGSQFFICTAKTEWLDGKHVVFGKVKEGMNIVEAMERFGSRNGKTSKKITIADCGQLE
structure (smiles),measurement,setting,value
CCn1c(-c2cc(N3CCN(C)CC3)cnc2[C@H](C)OC)c2c3cc(ccc31)-c1csc(n1)C[C@H](NC(=O)[C@H]1C[C@@H]1C)C(=O)N1CCC[C@H](N1)C(=O)OCC(C)(C)C2 [RMC-6236],K1 (cell death kinetics),[1]; Capan-2 PK-Efficacy model,0.11 h⁻¹
same,K2 (drug potency),[1]; Capan-2 PK-Efficacy model,4.47 M⁻¹ s⁻¹
same,K1,[1]; [4],0.1139 h⁻¹
same,K2,[1]; [4],4.47 M⁻¹ s⁻¹
same,K1,[1]; [5],9.2134 h⁻¹
same,K2,[1]; [5],2.42 M⁻¹ s⁻¹
same,K1,[1]; [6],47.0362 h⁻¹
same,K2,[1]; [6],19.1 M⁻¹ s⁻¹
same,K1,[1]; [7],6.512 h⁻¹
same,K2,[1]; [7],13 M⁻¹ s⁻¹
same,K1,[1]; [8],3.0924 h⁻¹
same,K2,[1]; [8],6.58 M⁻¹ s⁻¹
same,K1 (cell death kinetics),[1]; NCI-H441 PK-Efficacy model,6.51 h⁻¹
same,K2 (drug potency),[1]; NCI-H441 PK-Efficacy model,13 M⁻¹ s⁻¹
same,average blood threshold concentration (CT) required for tumor stasis,[1]; across NCI-H441 and Capan-2 models,158 nmol/L
same,human equivalent CT,[1]; corrected for blood–plasma partitioning and plasma protein binding,approximately 80 nmol/L
same,daily dose in mice projected to maintain Cavg above CT,[1]; mice,approximately 9 mg/kg
same,human daily dose anticipated to maintain Cavg above the estimated CT,[1]; [9],approximately 100 mg
same,human daily dose projected to achieve Cavg of 25 mg/kg daily in mice,[1]; [9],approximately 300 mg
same,Blood-plasma ratio,[2]; concentration 0.05 µM,4.86 and 5.48 and 5.49
same,Blood-plasma ratio,[2]; concentration 0.1 µM,5.31 and 5.73 and 5.41
same,Blood-plasma ratio,[2]; concentration 0.5 µM,3.7 and 4.38 and 4.15
same,Blood-plasma ratio,[2]; concentration 1 µM,2.96 and 3.18 and 2.73
same,Blood-plasma ratio,[2]; concentration 10 µM,0.76 and 1.07
same,E0,[2]; In vitro Human BP Fitting,5.712
same,Imax,[2]; In vitro Human BP Fitting,5.23
same,blood plasma ratio,"[2]; whole blood, Human Blood-Plasma Fitting, %CV 3.36, read-out: E0 (blood:plasma partitioning ratio at zero concentration)",5.71
same,EC50,wild-type HRAS,82 nM
same,Ka,[3]; Human Predictions,2 h⁻¹
same,V/F,[3]; Human Predictions,10.83 L/kg
same,estimated maximal DUSP6 suppression in human tumors,"[3]; daily dose of approximately 100 mg, steady state, transient",≥ 90%
same,estimated mean DUSP6 suppression in human tumors,"[3]; daily dose of approximately 300 mg, across the dosing interval at steady state",≥ 90%
